Measurements: patent US6355799B1, “Substituted benzene compounds, process for their preparation, and herbicidal and defoliant compositions containing them” (ISK Americas Incorporated, priority 1997, dated 2002)

Legend:
Type in all cases: in vivo
[1] = test system: upland rice (Oryza sp., var. Tebonnet, RICE); test: Post-emerge test, crop safety; settings: post-emerge, 14 days after application, rating scale 0-100
Method in brief: (§1)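 Compounds in acetone were track-sprayed at 15-1000 g ai/ha (187 l/ha) on sandy loam pots: pre-emerge one day after seeding, post-emerge at 2-3 leaf stage with 0.25% v/v non-ionic surfactant. Phytotoxicity was rated 14 days later on a 0 (no damage) to 100 (complete death) scale.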

[2] = test system: field corn (Zea mays L., var. Dekalb 535, CORN); test: Post-emerge test, crop safety; settings: post-emerge, 14 days after application, rating scale 0-100
Method in brief: as §1

[3] = test system: johnsongrass (Sorghum halepense, SORHA); test: Post-emerge test, greenhouse herbicide activity screening; settings: post-emerge, 14 days after application, rating scale 0-100
Method in brief: (§2)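 Compounds in acetone were track-sprayed at 15–1000 g ai/ha: pre-emergence onto soil sown the previous day, then top-watered to incorporate and later bottom-watered; post-emergence onto 2–3 leaf plants with 0.25% v/v surfactant, bottom-watered only. Ratings on a 0–100 phytotoxicity scale were taken at day 14.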

[4] = test system: redroot pigweed (Amaranthus retroflexus, AMARE); test: as above; settings: post-emerge, 14 days after application
Method in brief: as §2

[5] = test system: sicklepod (Cassia obtusifolia, CASOB); test: as above; settings: post-emerge, 14 days after application, rating scale 0-100
Method in brief: as §2

[6] = test system: large crabgrass (Digitaria sanguinalis, DIGSA); test: as above; settings: post-emerge, 14 days after application, rating scale 0-100
Method in brief: as §2

[7] = test system: ivyleaf morningglory (Ipomoea hederacea, IPOHE); test: as above; settings: post-emerge, 14 days after application, rating scale 0-100
Method in brief: as §2

[8] = test system: green foxtail (Setaria viridis, SETVI); test: as above; settings: post-emerge, 14 days after application, rating scale 0-100
Method in brief: as §2

[9] = test system: velvetleaf (Abutilon theophrasti, ABUTH); test: as above; settings: post-emerge, 14 days after application, rating scale 0-100
Method in brief: as §2

[10] = test system: lambsquarters (Chenopodium album, CHEAL); test: as above; settings: post-emerge, 14 days after application, rating scale 0-100
Method in brief: as §2

[11] = test system: barnyardgrass (Echinochloa crus-galli, ECHCG); test: as above; settings: post-emerge, 14 days after application, rating scale 0-100
Method in brief: as §2

[12] = test system: redroot pigweed (Amaranthus retroflexus, AMARE); test: Pre-emerge test, greenhouse herbicide activity screening; settings: phytotoxicity rating 0-100, 14 days after application
Method in brief: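 Rating: 0–100 visual injury, 14 DAA. Application: acetone, 187 l/ha, 15–1000 g ai/ha, flat-fan track sprayer with nozzle 40–45 cm above soil or canopy. Post-emerge runs used 0.25% v/v surfactant on 2–3 leaf plants.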

[13] = test system: johnsongrass (Sorghum halepense, SORHA); test: as above; settings: phytotoxicity rating 0-100, 14 days after application
Method in brief: as §1

[14] = test system: sicklepod (Cassia obtusifolia, CASOB); test: as above; settings: phytotoxicity rating 0-100, 14 days after application
Method in brief: as §1

[15] = test system: large crabgrass (Digitaria sanguinalis, DIGSA); test: as above; settings: phytotoxicity rating 0-100, 14 days after application
Method in brief: as §1

[16] = test system: ivyleaf morningglory (Ipomoea hederacea, IPOHE); test: as above; settings: phytotoxicity rating 0-100, 14 days after application
Method in brief: as §1

[17] = test system: green foxtail (Setaria viridis, SETVI); test: as above; settings: phytotoxicity rating 0-100, 14 days after application
Method in brief: as §1

[18] = test system: velvetleaf (Abutilon theophrasti, ABUTH); test: as above; settings: phytotoxicity rating 0-100, 14 days after application
Method in brief: as §1

[19] = test system: lambsquarters (Chenopodium album, CHEAL); test: as above; settings: phytotoxicity rating 0-100, 14 days after application
Method in brief: as §1

[20] = test system: barnyardgrass (Echinochloa crus-galli, ECHCG); test: as above; settings: phytotoxicity rating 0-100, 14 days after application
Method in brief: as §1

[21] = test system: upland rice (Oryza sp., var. Tebonnet, RICE); test: Pre-emerge test, crop safety; settings: crop damage rating 0-100, 14 days after application
Method in brief: (§3)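 Compounds in acetone were track-sprayed at 187 l/ha, 15–1000 g ai/ha, onto sandy loam pots. Pre-emerge seeds were sown one day before spraying, with surface watering afterwards. Post-emerge plants were at the 2–3 leaf stage and sprayed with 0.25% v/v non-ionic surfactant. Injury was rated 0–100 at 14 days.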

[22] = test system: field corn (Zea mays L., var. Dekalb 535, CORN); test: Pre-emerge test, crop safety; settings: crop damage rating 0-100, 14 days after application
Method in brief: as §3

SMILES: COc1c(Cl)cc(F)c(-n2c(=O)cc(C(F)(F)F)n(C)c2=O)c1NC(=O)OCc1ccc(F)c(F)c1 [4-30]
- phytotoxicity rating RICE (crop damage) ([1]; 63 g ai/ha): 80
- phytotoxicity rating RICE (crop damage) ([1]; 250 g ai/ha): 85
- phytotoxicity rating CORN (crop damage) ([2]; 63 g ai/ha): 90
- phytotoxicity rating CORN (crop damage) ([2]; 250 g ai/ha): 99
- phytotoxicity rating SORHA ([3]; 63 g ai/ha): 50
- phytotoxicity rating SORHA ([3]; 250 g ai/ha): 100
- phytotoxicity rating AMARE ([4]; 63 g ai/ha, rating scale 0-100 (0 no damage, 100 complete death)): 100
- phytotoxicity rating AMARE ([4]; 250 g ai/ha, rating scale 0-100): 100
- phytotoxicity rating CASOB ([5]; 63 g ai/ha): 100
- phytotoxicity rating CASOB ([5]; 250 g ai/ha): 100
- phytotoxicity rating DIGSA ([6]; 63 g ai/ha): 50
- phytotoxicity rating DIGSA ([6]; 250 g ai/ha): 85
- phytotoxicity rating IPOHE ([7]; 63 g ai/ha): 100
- phytotoxicity rating IPOHE ([7]; 250 g ai/ha): 100
- phytotoxicity rating SETVI ([8]; 63 g ai/ha): 80
- phytotoxicity rating SETVI ([8]; 250 g ai/ha): 100
- phytotoxicity rating ABUTH ([9]; 63 g ai/ha): 100
- phytotoxicity rating ABUTH ([9]; 250 g ai/ha): 100
- phytotoxicity rating CHEAL ([10]; 63 g ai/ha): 100
- phytotoxicity rating CHEAL ([10]; 250 g ai/ha): 100
- phytotoxicity rating ECHCG ([11]; 63 g ai/ha): 50
- phytotoxicity rating ECHCG ([11]; 250 g ai/ha): 90
- Pre-emerge Herbicidal Activity AMARE ([12]; 63 g ai/ha): 100
- Pre-emerge Herbicidal Activity AMARE ([12]; 250 g ai/ha): 100
- Pre-emerge Herbicidal Activity SORHA ([13]; 63 g ai/ha): 30
- Pre-emerge Herbicidal Activity SORHA ([13]; 250 g ai/ha): 80
- Pre-emerge Herbicidal Activity CASOB ([14]; 63 g ai/ha): 90
- Pre-emerge Herbicidal Activity CASOB ([14]; 250 g ai/ha): 95
- Pre-emerge Herbicidal Activity DIGSA ([15]; 63 g ai/ha): 90
- Pre-emerge Herbicidal Activity DIGSA ([15]; 250 g ai/ha): 100
- Pre-emerge Herbicidal Activity IPOHE ([16]; 63 g ai/ha): 60
- Pre-emerge Herbicidal Activity IPOHE ([16]; 250 g ai/ha): 100
- Pre-emerge Herbicidal Activity SETVI ([17]; 63 g ai/ha): 100
- Pre-emerge Herbicidal Activity SETVI ([17]; 250 g ai/ha): 100
- Pre-emerge Herbicidal Activity ABUTH ([18]; 63 g ai/ha): 100
- Pre-emerge Herbicidal Activity ABUTH ([18]; 250 g ai/ha): 100
- Pre-emerge Herbicidal Activity CHEAL ([19]; 63 g ai/ha): 100
- Pre-emerge Herbicidal Activity CHEAL ([19]; 250 g ai/ha): 100
- Pre-emerge Herbicidal Activity ECHCG ([20]; 63 g ai/ha): 60
- Pre-emerge Herbicidal Activity ECHCG ([20]; 250 g ai/ha): 90
- Pre-emerge Herbicidal Activity RICE ([21]; 63 g ai/ha): 90
- Pre-emerge Herbicidal Activity RICE ([21]; 250 g ai/ha): 90
- Pre-emerge Herbicidal Activity CORN ([22]; 63 g ai/ha): 30
- Pre-emerge Herbicidal Activity CORN ([22]; 250 g ai/ha): 70
